According to paper PMC9518264, “Design and synthesis of novel quinazolinone-based derivatives as EGFR inhibitors with antitumor activity” (Journal of Enzyme Inhibition and Medicinal Chemistry, 2022):

Legend:
MCF7 = test: cells; type: cell-based; conditions: Homo sapiens, MCF7, read-out: growth inhibition % (GI%)
ACHN = test: cells; type: cell-based; conditions: Homo sapiens, read-out: growth inhibition % (GI%)
MOLT-4 = test: cells; type: cell-based; conditions: Homo sapiens, MOLT-4, read-out: growth inhibition % (GI%)
A498 = test: cells; type: cell-based; conditions: Homo sapiens, A498, read-out: growth inhibition % (GI%)
LOX IMIV = test: cells; type: cell-based; conditions: Homo sapiens, 60 cell, read-out: growth inhibition % (GI%)
SF-539 = test: cells; type: cell-based; conditions: Homo sapiens, SF-539, read-out: growth inhibition % (GI%)
HCC-2998 = test: cells; type: cell-based; conditions: Homo sapiens, HCC 2998, read-out: growth inhibition % (GI%)
CCRF-CEM = test: cells; type: cell-based; conditions: Homo sapiens, read-out: growth inhibition % (GI%)
OVCAR-4 = test: cells; type: cell-based; conditions: Homo sapiens, OVCAR-4, read-out: growth inhibition % (GI%)
A549/ATCC = test: cells; type: cell-based; conditions: Homo sapiens, A549, read-out: growth inhibition % (GI%)
HOP-62 = test: cells; type: cell-based; conditions: Homo sapiens, HOP-62, read-out: growth inhibition % (GI%)
SNB-75 = test: cells; type: cell-based; conditions: Homo sapiens, SNB-75, read-out: growth inhibition % (GI%)
NCI/ADR-RES = test: cells; type: cell-based; conditions: Homo sapiens, read-out: growth inhibition % (GI%)
COLO-205 = test: cells; type: cell-based; conditions: Homo sapiens, COLO 205, read-out: growth inhibition % (GI%)
UACC-257 = test: cells; type: cell-based; conditions: Homo sapiens, UACC-257, read-out: growth inhibition % (GI%)
SK-MEL-2 = test: cells; type: cell-based; conditions: Homo sapiens, SK-MEL-2, read-out: growth inhibition % (GI%)
OVCAR-3 = test: NCI 60 cell line antiproliferative screening (SRB), Ovarian cancer; conditions: Homo sapiens, OVCAR-3, read-out: growth inhibition % (GI%)
DU-145 = test: cells; type: cell-based; conditions: Homo sapiens, DU-145, read-out: growth inhibition % (GI%)
NCI-H522 = test: cells; type: cell-based; conditions: Homo sapiens, NCI-H522, read-out: growth inhibition % (GI%)
TK-10 = test: cells; type: cell-based; conditions: Homo sapiens, TK-10, read-out: growth inhibition % (GI%)
NCI-H460 = test: cells; type: cell-based; conditions: Homo sapiens, NCI-H460, read-out: growth inhibition % (GI%)
[1] = tested on: panel of 60 tumour cell lines; test: NCI 60 cell line antiproliferative screening (SRB), whole panel or subpanels (means, ranges, words); type: cell-based, human; conditions: 10 μM; for inhibition at 10 µM: Homo sapiens, 60 cell, mean over the cell line panel, read-out: Mean growth inhibition % (mean GI%)
SK-OV-3 = test: cells; type: cell-based; conditions: Homo sapiens, SK-OV-3, read-out: growth inhibition % (GI%)
T-47D = test: cells; type: cell-based; conditions: Homo sapiens, T47D, read-out: growth inhibition % (GI%)
U251 = test: cells; type: cell-based; conditions: Homo sapiens, U-251, read-out: growth inhibition % (GI%)
OVCAR-8 = test: cells; type: cell-based; conditions: Homo sapiens, OVCAR-8, read-out: growth inhibition % (GI%)
IGROV1 = test: cells; type: cell-based; conditions: Homo sapiens, IGROV-1, read-out: growth inhibition % (GI%)
SNB-19 = test: cells; type: cell-based; conditions: Homo sapiens, SNB-19, read-out: growth inhibition % (GI%)
HCT-116 = test: cells; type: cell-based; conditions: Homo sapiens, HCT-116, read-out: growth inhibition % (GI%)
BT-549 = test: cells; type: cell-based; conditions: Homo sapiens, BT-549, read-out: growth inhibition % (GI%)
HCT-15 = test: cells; type: cell-based; conditions: Homo sapiens, HCT-15, read-out: growth inhibition % (GI%)
SF-295 = test: cells; type: cell-based; conditions: Homo sapiens, SF-295, read-out: growth inhibition % (GI%)
PC-3 = test: cells; type: cell-based; conditions: Homo sapiens, PC-3, read-out: growth inhibition % (GI%)
EKVX = test: cells; type: cell-based; conditions: Homo sapiens, read-out: growth inhibition % (GI%)
KM12 = test: cells; type: cell-based; conditions: Homo sapiens, KM12, read-out: growth inhibition % (GI%)
MALME-3M = test: cells; type: cell-based; conditions: Homo sapiens, Malme-3M, read-out: growth inhibition % (GI%)
SF-268 = test: cells; type: cell-based; conditions: Homo sapiens, SF-268, read-out: growth inhibition % (GI%)
NCI-H322M = test: cells; type: cell-based; conditions: Homo sapiens, read-out: growth inhibition % (GI%)
SK-MEL-5 = test: cells; type: cell-based; conditions: Homo sapiens, SK-MEL-5, read-out: growth inhibition % (GI%)
HL-60(TB) = test: cells; type: cell-based; conditions: Homo sapiens, HL-60, read-out: growth inhibition % (GI%)
HOP-92 = test: cells; type: cell-based; conditions: Homo sapiens, HOP-92, read-out: growth inhibition % (GI%)
SN12C = test: cells; type: cell-based; conditions: Homo sapiens, read-out: growth inhibition % (GI%)
MDA-MB-468 = test: NCI 60 cell line antiproliferative screening (SRB), Breast cancer; conditions: Homo sapiens, MDA-MB-468, read-out: growth inhibition % (GI%)
OVCAR-5 = test: cells; type: cell-based; conditions: Homo sapiens, OVCAR-5, read-out: growth inhibition % (GI%)
NCI-H226 = test: cells; type: cell-based; conditions: Homo sapiens, NCI-H226, read-out: growth inhibition % (GI%)
786-0 = test: cells; type: cell-based; conditions: Homo sapiens, 786-0, read-out: growth inhibition % (GI%)

## O=C(CSc1nc2ccccc2c(=O)n1-c1ccccc1)NN=Cc1ccc(Oc2ccc(Cl)cc2)cc1 [6a, N'-(4–(4-chlorophenoxy)benzylidene)-2-((4-oxo-3-phenyl-3,4-dihydroquinazolin-2-yl)thio)acetohydrazide]
MCF7
  inhibition at 10 µM: 35.5%
ACHN
  inhibition at 10 µM: 25.5%
MOLT-4
  inhibition at 10 µM: 41.3%
A498
  inhibition at 10 µM: 34.3%
LOX IMIV
  inhibition at 10 µM: 86%
SF-539
  inhibition at 10 µM: 31.5%
HCC-2998
  inhibition at 10 µM: < 15%
CCRF-CEM
  inhibition at 10 µM: 49.6%
OVCAR-4
  inhibition at 10 µM: 26.2%
A549/ATCC
  inhibition at 10 µM: 58.3%
HOP-62
  inhibition at 10 µM: 40.9%
SNB-75
  inhibition at 10 µM: 39.9%
NCI/ADR-RES
  inhibition at 10 µM: 47.3%
COLO-205
  inhibition at 10 µM: 50.8%
UACC-257
  inhibition at 10 µM: < 15%
SK-MEL-2
  inhibition at 10 µM: 13.1%
OVCAR-3
  inhibition at 10 µM: < 15%
DU-145
  inhibition at 10 µM: 61.6%
NCI-H522
  inhibition at 10 µM: 50.4%
TK-10
  inhibition at 10 µM: < 15%
NCI-H460
  inhibition at 10 µM: 67.9%
[1]; subset of cell lines whose number is stated in the sentence
  GI% range over a subset of cell lines: 67.86% to 30.09
[1]
  inhibition at 10 µM: 37.3%
SK-OV-3
  inhibition at 10 µM: 16.8%
T-47D
  inhibition at 10 µM: 17.5%
U251
  inhibition at 10 µM: 84.8%
OVCAR-8
  inhibition at 10 µM: 40.8%
IGROV1
  inhibition at 10 µM: 50.9%
SNB-19
  inhibition at 10 µM: 66.8%
HCT-116
  inhibition at 10 µM: 94.4%
BT-549
  inhibition at 10 µM: 30.1%
HCT-15
  inhibition at 10 µM: 39.2%
SF-295
  inhibition at 10 µM: 16.2%
PC-3
  inhibition at 10 µM: 41.3%
EKVX
  inhibition at 10 µM: 41%
KM12
  inhibition at 10 µM: 16.3%
MALME-3M
  inhibition at 10 µM: 48.7%
SF-268
  inhibition at 10 µM: < 15%
NCI-H322M
  inhibition at 10 µM: 15.5%
SK-MEL-5
  inhibition at 10 µM: 28.8%
HL-60(TB)
  inhibition at 10 µM: < 15%
HOP-92
  inhibition at 10 µM: 33.3%
SN12C
  inhibition at 10 µM: 73.1%
MDA-MB-468
  inhibition at 10 µM: 28.4%
OVCAR-5
  inhibition at 10 µM: 18.6%
NCI-H226
  inhibition at 10 µM: 27.9%
786-0
  inhibition at 10 µM: 46.8%

## O=C(CSc1nc2ccccc2c(=O)n1-c1ccccc1)NN=Cc1ccc(Oc2ccc(Br)cc2)cc1 [6b, N'-(4–(4-bromophenoxy)benzylidene)-2-((4-oxo-3-phenyl-3,4-dihydroquinazolin-2-yl)thio) acetohydrazide]
MCF7
  inhibition at 10 µM: 31.1%
ACHN
  inhibition at 10 µM: < 15%
MOLT-4
  inhibition at 10 µM: 44.5%
A498
  inhibition at 10 µM: 17.7%
LOX IMIV
  inhibition at 10 µM: 79%
SF-539
  inhibition at 10 µM: 31.3%
HCC-2998
  inhibition at 10 µM: < 15%
CCRF-CEM
  inhibition at 10 µM: 43.1%
OVCAR-4
  inhibition at 10 µM: 18.3%
A549/ATCC
  inhibition at 10 µM: 57.8%
HOP-62
  inhibition at 10 µM: 36.1%
SNB-75
  inhibition at 10 µM: 42.2%
NCI/ADR-RES
  inhibition at 10 µM: 44.8%
COLO-205
  inhibition at 10 µM: 55.6%
UACC-257
  inhibition at 10 µM: < 15%
SK-MEL-2
  inhibition at 10 µM: < 15%
OVCAR-3
  inhibition at 10 µM: < 15%
DU-145
  inhibition at 10 µM: 61.7%
NCI-H522
  inhibition at 10 µM: 51.5%
TK-10
  inhibition at 10 µM: < 15%
NCI-H460
  inhibition at 10 µM: 72%
[1]
  inhibition at 10 µM: 34.8%
SK-OV-3
  inhibition at 10 µM: 15.5%
T-47D
  inhibition at 10 µM: 17.6%
U251
  inhibition at 10 µM: 78.5%
OVCAR-8
  inhibition at 10 µM: 36.7%
IGROV1
  inhibition at 10 µM: 34.5%
SNB-19
  inhibition at 10 µM: 60.1%
HCT-116
  inhibition at 10 µM: 92.2%
BT-549
  inhibition at 10 µM: 26.9%
HCT-15
  inhibition at 10 µM: 36.3%
SF-295
  inhibition at 10 µM: 16.3%
PC-3
  inhibition at 10 µM: 28.2%
EKVX
  inhibition at 10 µM: 39.3%
KM12
  inhibition at 10 µM: 23.7%
MALME-3M
  inhibition at 10 µM: 45.1%
SF-268
  inhibition at 10 µM: 15.7%
NCI-H322M
  inhibition at 10 µM: < 15%
SK-MEL-5
  inhibition at 10 µM: 40.9%
HL-60(TB)
  inhibition at 10 µM: < 15%
HOP-92
  inhibition at 10 µM: 27%
SN12C
  inhibition at 10 µM: 59.3%
MDA-MB-468
  inhibition at 10 µM: 34.9%
OVCAR-5
  inhibition at 10 µM: < 15%
NCI-H226
  inhibition at 10 µM: 22.4%
786-0
  inhibition at 10 µM: 54%
